# In patent US11976116B2, “Salvage chimeric antigen receptor systems” (2seventy bio, Inc., priority 2016, dated 2024):
# Tests used:
# K562-BCMA positive cells [1] = experiment: Cytotoxicity assay, CAR T cells co-cultured with K562-BCMA positive and negative cells; assay type: cell-based; conditions: 20 nM AP21967, 24 hours, E:T 5:1
# Description: (§1) Human PBMCs (1×10^6 cells/mL) were activated with soluble anti-CD3 and anti-CD28 antibodies (50 ng/ml) on day 0. After 24 hr incubation, 1×10^6 cells were transduced with lentivirus encoding either an anti-BCMA CAR or an anti-BCMA salvage CAR. The transduced cells were washed and resuspended at 0.3×10^6 cells/mL growth medium on day 3. The CAR T cells were cultured for 7 days with IL-2 (250 IU/mL) containing medium changed every other day.
# The cytotoxic potential of anti-BCMA CAR T cells and anti-BCMA salvage CAR T cells was analyzed by co-culturing day 10 CAR T cells (E, effector cells) with a 50:50 mixture of K562-BCMA positive cells (GFP positive) (T, target cells) and K562-BCMA negative cells (BFP positive) for 24 hours at an E:T ratio of 5:1. Cells were co-cultured with or without 20 nM AP21967 (a non-immunosuppressive rapamycin analog). The ratio of K562-BCMA positive cells to K562-BCMA negative cells is a direct readout of CAR T cell cytotoxicity.
# K562-BCMA positive cells [2] = experiment: IFNγ release assay (ELISA), CAR T cells co-cultured with K562-BCMA positive cells; assay type: cell-based; conditions: 24 hours, E:T 1:1
# Description: as §1
# Antigen dependent cytokine secretion was analyzed by co-culturing day 10 CAR T cells with K562-BCMA positive cells for 24 hours at an E:T ratio of 1:1 (with or without AP21967). Culture supernatants were collected and IFNγ production was analyzed using the IFNγ ELISA kit (eBiosciences).
# [3] = tested on: BCMA negative, CD19 positive Nalm-6 cells; experiment: Cytotoxicity assay, anti-BCMA salvage CAR T cells co-cultured with Nalm-6-CD19 positive and K562-CD19 negative cells; assay type: cell-based; conditions: 250 ng pre-loaded receptor, with or without 100 nM AP21967, 24 hr, E:T 2:1
# Text: 293 T cells were transduced with lentivirus encoding the dimerizable anti-CD19 salvage receptor to generate a stable source of secreted anti-CD19-scFv-FKBP12 proteins (FIG. 1, right panel). Supernatant containing soluble anti-CD19 salvage receptor polypeptides (anti-CD19 scFV FKBP12) was collected from stable 293T-710 cells and filtered.
# The anti-CD19 salvage receptor forms a heterodimer with the anti-BCMA salvage CAR in the presence of AP21967 (FIG. 3A). The cytotoxic potential of anti-BCMA salvage CAR T cells (E) against BCMA negative, CD19 positive Nalm-6 cells (T) was analyzed by co-culturing CAR T cells with a 50:50 mixture of Nalm-6-CD19 positive cells (GFP positive) and K562-CD19 negative cells (BFP positive) for 24 hours at an E:T ratio of 2:1. The co-cultures were treated with vehicle or 100 nM AP21967 and with different volumes of 293T-710 cell supernatant (0 μl, 10 μl, or 30 μl). […] FIG. 3B.
# T cells were transduced with lentiviral vectors encoding an anti-BCMA CAR or anti-BCMA salvage CAR. The CART cells were co-cultured with a 50:50 mixture of CD19 positive Nalm-6 cells expressing GFP and CD19 negative K562 cells expressing BFP, in the presence or absence of 250 ng pre-loaded dimerizable anti-CD19 salvage receptor, with or without 100 nM AP21967, for 24 hr, at a 2:1 E:T ratio. […] FIG. 5. AP21967 was not required to trigger the CD19 specific cytotoxicity. […]
# [4] = target and assay not given; cited from earlier work
structure (smiles),measurement,setting,value
"CO[C@H]1[C@@H](O)[C@H](C)C[C@H](C)/C=C/C=C/C=C(\C)[C@@H](c2c[nH]c3c(C)cccc23)C[C@@H]2CC[C@@H](C)[C@@](O)(O2)C(=O)C(=O)N2CCCC[C@H]2C(=O)O[C@H]([C@H](C)C[C@@H]2CC[C@@H](O)[C@H](OC)C2)C[C@H](O)[C@H](C)/C=C(\C)[C@H]1O [AP21967, C-16-(S)-7-methylindolerapamycin]",effect of AP21967 on cytotoxicity,K562-BCMA positive cells [1],no effect on cytotoxicity
same,effect of AP21967 in the IFNγ release co-culture,K562-BCMA positive cells [2],did not substantially affect cytotoxicity
same,requirement of AP21967 for CD19 specific cytotoxicity,[3],not required
same,IC50,[4],10 nM
